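A five-concentration, 48-hour dose response in 96-well plates underlies each endpoint, interpolated linearly between surrounding concentrations. Here, GI50 denotes the concentration required for 50% inhibition of growth. The concentration for full growth arrest is given as TGI.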
Tests used:
Assay in all cases: DTP human tumour cell line panel, 48 h
[1] = tested on: 786-0 renal
[2] = tested on: A498 renal
[3] = tested on: A549 NSCLC
[4] = tested on: ACHN renal
[5] = tested on: BT-549 breast
[6] = tested on: CAKI-1 renal
[7] = tested on: CCRF-CEM leukemia
[8] = tested on: COLO 205 colon
[9] = tested on: DU-145 prostate
[10] = tested on: EKVX NSCLC
[11] = tested on: HCC-2998 colon
[12] = tested on: HCT-116 colon
[13] = tested on: HCT-15 colon
[14] = tested on: HL-60(TB) leukemia
[15] = tested on: HOP-62 NSCLC
[16] = tested on: HOP-92 NSCLC
[17] = tested on: HS 578T breast
[18] = tested on: HT29 colon
[19] = tested on: IGROV1 ovarian
[20] = tested on: K-562 leukemia
[21] = tested on: KM12 colon
[22] = tested on: LOX IMVI melanoma
[23] = tested on: M14 melanoma
[24] = tested on: MALME-3M melanoma
[25] = tested on: MCF7 breast
[26] = tested on: MDA-MB-231 breast
[27] = tested on: MDA-MB-435
[28] = tested on: MOLT-4 leukemia
[29] = tested on: NCI-H226 lung
[30] = tested on: NCI-H23 lung
[31] = tested on: NCI-H460 lung
[32] = tested on: NCI-H522 lung
[33] = tested on: NCI/ADR-RES ovarian
[34] = tested on: OVCAR-3 ovarian
[35] = tested on: OVCAR-4 ovarian
[36] = tested on: OVCAR-5 ovarian
[37] = tested on: OVCAR-8 ovarian
[38] = tested on: PC-3 prostate
[39] = tested on: RPMI-8226 leukemia
[40] = tested on: RXF 393 renal
[41] = tested on: SF-268 CNS
[42] = tested on: SF-295 CNS
[43] = tested on: SF-539 CNS
[44] = tested on: SK-MEL-2 melanoma
[45] = tested on: SK-MEL-28 melanoma
[46] = tested on: SK-MEL-5 melanoma
[47] = tested on: SK-OV-3 ovarian
[48] = tested on: SN12C renal
[49] = tested on: SNB-19 CNS
[50] = tested on: SNB-75 CNS
[51] = tested on: SW-620 colon
[52] = tested on: T-47D breast
[53] = tested on: TK-10 renal
[54] = tested on: U251 CNS
[55] = tested on: UACC-257 melanoma
[56] = tested on: UACC-62 melanoma
[57] = tested on: UO-31 renal

Molecule `COc1cccc(-c2nc(-c3ccc(NC(=O)OC(C)C)cc3)[nH]c2-c2ccnc(Br)c2)c1` has a GI50 [1] of 0.974 µM, a TGI [1] greater than 100 µM and a GI50 [2] of 1.2 µM. For the same molecule, the TGI [2] was 6.29 µM, the GI50 [3] was 2.96 µM and the TGI [3] was greater than 100 µM. For the same molecule, the GI50 [4] was 2.7 µM, the TGI [4] was greater than 100 µM and the GI50 [5] was 2.19 µM. The TGI [5] was greater than 100 µM, the GI50 [6] was 2.49 µM and the TGI [6] was greater than 100 µM. For the same molecule, the GI50 [7] was 2.22 µM, the TGI [7] was greater than 100 µM and the GI50 [8] was 3.26 µM. The TGI [8] was greater than 100 µM, the GI50 [9] was 3.33 µM and the TGI [9] was greater than 100 µM. The GI50 [10] was 2.45 µM, the TGI [10] was 10.3 µM and the GI50 [11] was 2.71 µM. The TGI [11] was greater than 100 µM, the GI50 [12] was 2.68 µM and the TGI [12] was greater than 100 µM. The GI50 [13] was 1.19 µM, the TGI [13] was 4.79 µM and the GI50 [14] was 1.38 µM. The TGI [14] was 4.06 µM, the GI50 [15] was 2.92 µM and the TGI [15] was greater than 100 µM. It also gave a GI50 [16] of 3.19 µM, a TGI [16] of 8.29 µM and a GI50 [17] of 0.308 µM. For the same molecule, the TGI [17] was 1.69 µM, the GI50 [18] was 2.37 µM and the TGI [18] was greater than 100 µM. The GI50 [19] was 3.54 µM, the TGI [19] was greater than 100 µM and the GI50 [20] was 1.88 µM. The TGI [20] was greater than 100 µM, the GI50 [21] was 2.41 µM and the TGI [21] was greater than 100 µM. It also gave a GI50 [22] of 1.49 µM, a TGI [22] of 3.36 µM and a GI50 [23] of 3.06 µM. It also gave a TGI [23] greater than 100 µM, a GI50 [24] of 2.23 µM and a TGI [24] of 7 µM. For the same molecule, the GI50 [25] was 1.59 µM, the TGI [25] was 8.15 µM and the GI50 [26] was 3.85 µM. For the same molecule, the TGI [26] was greater than 100 µM, the GI50 [27] was 3.11 µM and the TGI [27] was greater than 100 µM. It also gave a GI50 [28] of 1.64 µM, a TGI [28] of 56 µM and a GI50 [29] of 2.46 µM. For the same molecule, the TGI [29] was 87.5 µM, the GI50 [30] was 2.61 µM and the TGI [30] was 9.54 µM. The GI50 [31] was 2.99 µM, the TGI [31] was greater than 100 µM and the GI50 [32] was 2.48 µM. The TGI [32] was 9.01 µM, the GI50 [33] was 2.85 µM and the TGI [33] was greater than 100 µM. For the same molecule, the GI50 [34] was 2.83 µM, the TGI [34] was greater than 100 µM and the GI50 [35] was 3.09 µM. It also gave a TGI [35] greater than 100 µM, a GI50 [36] of 4.43 µM and a TGI [36] greater than 100 µM. The GI50 [37] was 3.12 µM, the TGI [37] was greater than 100 µM and the GI50 [38] was 2.62 µM. For the same molecule, the TGI [38] was greater than 100 µM, the GI50 [39] was 0.389 µM and the TGI [39] was 2.21 µM. The GI50 [40] was 0.282 µM, the TGI [40] was 0.87 µM and the GI50 [41] was 3.35 µM. It also gave a TGI [41] greater than 100 µM, a GI50 [42] of 0.256 µM and a TGI [42] of 0.64 µM. For the same molecule, the GI50 [43] was 1.53 µM, the TGI [43] was 5.83 µM and the GI50 [44] was 2.33 µM. The TGI [44] was 7.03 µM, the GI50 [45] was 2.55 µM and the TGI [45] was greater than 100 µM. The GI50 [46] was 1.88 µM, the TGI [46] was 3.65 µM and the GI50 [47] was 3.85 µM. The TGI [47] was greater than 100 µM, the GI50 [48] was 2.94 µM and the TGI [48] was greater than 100 µM. It also gave a GI50 [49] of 3.19 µM, a TGI [49] greater than 100 µM and a GI50 [50] of 0.567 µM. The TGI [50] was greater than 100 µM, the GI50 [51] was 3.32 µM and the TGI [51] was greater than 100 µM. For the same molecule, the GI50 [52] was 2.08 µM, the TGI [52] was 7.64 µM and the GI50 [53] was 3.61 µM. It also gave a TGI [53] greater than 100 µM, a GI50 [54] of 1.69 µM and a TGI [54] greater than 100 µM. For the same molecule, the GI50 [55] was 3.15 µM, the TGI [55] was greater than 100 µM and the GI50 [56] was 1.98 µM. For the same molecule, the TGI [56] was 4.87 µM, the GI50 [57] was 2.51 µM and the TGI [57] was greater than 100 µM.
